What follows are compounds tested against T1, human orexin type 2 receptor (Homo sapiens, UniProt O43614) (assay: Measurement of orexin type 2 receptor agonist activity (calcium fluorescence, Fluo-4 AM, FDSS)). Settings: test compound 3 μM; CHO cells expressing human OX2 receptor; DMSO = 0%, orexin A (human) = 100%.
T1 construct: expressed in transfected cells
T1 sequence (O43614 1-444): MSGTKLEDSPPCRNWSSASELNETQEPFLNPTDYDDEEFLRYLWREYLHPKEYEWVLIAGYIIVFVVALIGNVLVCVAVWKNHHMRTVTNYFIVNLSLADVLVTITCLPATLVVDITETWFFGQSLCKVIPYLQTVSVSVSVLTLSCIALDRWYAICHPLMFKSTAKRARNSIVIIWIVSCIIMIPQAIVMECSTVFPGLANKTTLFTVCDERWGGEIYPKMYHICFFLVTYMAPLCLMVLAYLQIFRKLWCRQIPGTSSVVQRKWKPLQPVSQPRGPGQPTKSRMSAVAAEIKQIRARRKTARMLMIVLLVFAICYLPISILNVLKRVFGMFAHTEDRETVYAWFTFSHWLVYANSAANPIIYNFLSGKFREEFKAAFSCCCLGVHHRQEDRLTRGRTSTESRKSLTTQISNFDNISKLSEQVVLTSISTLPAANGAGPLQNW
Type: cell-based
Excerpt: To obtain a cell clone stably expressing human orexin type 2 receptor, human orexin type 2 receptor cDNA was inserted into pcDNA3.1(+) plasmid vector (Invitrogen), and a plasmid DNA for expression of human orexin type 2 receptor (pcDNA3.1(+)/hOX2R) was cloned. The plasmid DNA was introduced into CHO-K1 cell by an electroporation method, and human orexin type 2 receptor expressing clone cells were obtained by limiting dilution method by using G418 drug resistance as a selection marker.
CHO cells forcibly expressing human OX2 receptor were seeded in each well of 384 well black transparent bottom plate (BD Falcon) at 10,000 cells/well, and cultured for one day in a 5% CO2 incubator at 37° C. After removal of the medium in the cell plate, assay buffer A containing a calcium indicator (HBSS (Thermo Fisher Scientific), 20 mM HEPES (Thermo Fisher Scientific), 0.1% BSA (Sigma-Aldrich), 2.5 μg/mL Fluo-4 AM (DOJINDO Chemical), 0.08% Pluronic F127 (DOJINDO Chemical), 1.25 mM probenecid (DOJINDO Chemical)) was added at 30 μL/well. The plate was stood for 30 min in a 5% CO2 incubator at 37° C., and further stood at room temperature for 30 min. A test compound prepared by diluting with assay buffer B (HBSS, 20 mM HEPES, 0.1% BSA) was added at 10 μL/well, and the fluorescence value was measured by FDSSμCELL (Hamamatsu Photonics K.K.) every one sec for 1 min, and thereafter every two sec for […]. The activity (%) of the test compound was calculated assuming that variation in the fluorescence value when DMSO was added instead of the test compound was 0%, and variation in the fluorescence value when orexin A (human) (PEPTIDE INSTITUTE, INC.) was added at the final concentration of 10 nM was 100%.

OX2R agonist activity (3 μM, %) [%] | Compound
75 | Cc1nnc(C2(NS(C)(=O)=O)CCN(C(=O)[C@@H]3C[C@@]3(F)c3ccccc3-c3c(F)cccc3F)C2)o1 (mixture of isomers) [Example 422, a mixture of N-[(3R)-1-[(1S,2S)-2-(2′,6′-difluoro[1,1′-biphenyl]-2-yl)-2-fluorocyclopropane-1-carbonyl]-3-(5-methyl-1,3,4-oxadiazol-2-yl)pyrrolidin-3-yl]methanesulfonamide and N-[(3S)-1-[(1S,2S)-2-(2′,6′-difluoro[1,1′-biphenyl]-2-yl)-2-fluorocyclopropane-1-carbonyl]-3-(5-methyl-1,3,4-oxadiazol-2-yl)pyrrolidin-3-yl]methanesulfonamide]
81 | Cc1cccc(F)c1-c1ccccc1C1CC1C(=O)N1CCC(NS(C)(=O)=O)C1 (racemic) [Example 3, a mixture of rac-N-{(3R)-1-[(1R,2R)-2-(2′-fluoro-6′-methyl[1,1′-biphenyl]-2-yl)cyclopropane-1-carbonyl]pyrrolidin-3-yl}methanesulfonamide and rac-N-{(3S)-1-[(1R,2R)-2-(2′-fluoro-6′-methyl[1,1′-biphenyl]-2-yl)cyclopropane-1-carbonyl]pyrrolidin-3-yl}methanesulfonamide]
102 | CS(=O)(=O)NC1CCN(C(=O)C2CC2c2ccccc2-c2c(F)cccc2F)C1 (racemic) [Example 4, a mixture of rac-N-{(3R)-1-[(1R,2R)-2-(2′,6′-difluoro[1,1′-biphenyl]-2-yl)cyclopropane-1-carbonyl]pyrrolidin-3-yl}methanesulfonamide and rac-N-{(3S)-1-[(1R,2R)-2-(2′,6′-difluoro[1,1′-biphenyl]-2-yl)cyclopropane-1-carbonyl]pyrrolidin-3-yl}methanesulfonamide]
80 | CS(=O)(=O)NC1CCN(C(=O)C2CC2c2ccccc2-c2ccc(F)cc2F)C1 (racemic) [Example 10, a mixture of rac-N-{(3R)-1-[(1R,2R)-2-(2′,4′-difluoro[1,1′-biphenyl]-2-yl)cyclopropane-1-carbonyl]pyrrolidin-3-yl}methanesulfonamide and rac-N-{(3S)-1-[(1R,2R)-2-(2′,4′-difluoro[1,1′-biphenyl]-2-yl)cyclopropane-1-carbonyl]pyrrolidin-3-yl}methanesulfonamide]
66 | CS(=O)(=O)NC1CCN(C(=O)C2CC2c2ccccc2-c2ccccc2F)C1 (racemic) [Example 12, a mixture of rac-N-{(3R)-1-[(1R,2R)-2-(2′-fluoro[1,1′-biphenyl]-2-yl)cyclopropane-1-carbonyl]pyrrolidin-3-yl}methanesulfonamide and rac-N-{(3S)-1-[(1R,2R)-2-(2′-fluoro[1,1′-biphenyl]-2-yl)cyclopropane-1-carbonyl]pyrrolidin-3-yl}methanesulfonamide]
92 | CS(=O)(=O)NC1CCN(C(=O)C2CC2c2ccccc2-c2c(F)cccc2Cl)C1 (racemic) [Example 15, a mixture of rac-N-{(3R)-1-[(1R,2R)-2-(2′-chloro-6′-fluoro[1,1′-biphenyl]-2-yl)cyclopropane-1-carbonyl]pyrrolidin-3-yl}methanesulfonamide and rac-N-{(3S)-1-[(1R,2R)-2-(2′-chloro-6′-fluoro[1,1′-biphenyl]-2-yl)cyclopropane-1-carbonyl]pyrrolidin-3-yl}methanesulfonamide]
104 | CS(=O)(=O)NC1CCN(C(=O)C2CC2c2c(F)cccc2-c2c(F)cccc2F)C1 (racemic) [Example 26, a mixture of rac-N-{(3R)-1-[(1R,2R)-2-(2′,3,6′-trifluoro[1,1′-biphenyl]-2-yl)cyclopropane-1-carbonyl]pyrrolidin-3-yl}methanesulfonamide and rac-N-{(3S)-1-[(1R,2R)-2-(2′,3,6′-trifluoro[1,1′-biphenyl]-2-yl)cyclopropane-1-carbonyl]pyrrolidin-3-yl}methanesulfonamide]

— patent US20250250230A1, “HETEROCYCLIC COMPOUND” (TAKEDA PHARMACEUTICAL COMPANY LIMITED, priority 2022, published 2025)
